Data taken from publication PMC3669024, “Pharmacological Characterization of a 5-HT1-Type Serotonin Receptor in the Red Flour Beetle, Tribolium castaneum” (PLoS ONE, 2013).
Where a name gives a salt, the structure may show the parent alone. Read-outs that look alike come from different tables or passages of the source.

Legend:
Assay type in all cases: cell-based
Trica5-HT1 [1] = target: T1, Trica5-HT1 (Tribolium castaneum, UniProt R9ULB8); experiment: Aequorin-luminescence assay in CHO-PAM28 cells (no Gα16), Ca2+ signaling of Trica5-HT1; details: CHO-PAM28 cells transfected with the receptor
T1 sequence (R9ULB8 entry or part of it): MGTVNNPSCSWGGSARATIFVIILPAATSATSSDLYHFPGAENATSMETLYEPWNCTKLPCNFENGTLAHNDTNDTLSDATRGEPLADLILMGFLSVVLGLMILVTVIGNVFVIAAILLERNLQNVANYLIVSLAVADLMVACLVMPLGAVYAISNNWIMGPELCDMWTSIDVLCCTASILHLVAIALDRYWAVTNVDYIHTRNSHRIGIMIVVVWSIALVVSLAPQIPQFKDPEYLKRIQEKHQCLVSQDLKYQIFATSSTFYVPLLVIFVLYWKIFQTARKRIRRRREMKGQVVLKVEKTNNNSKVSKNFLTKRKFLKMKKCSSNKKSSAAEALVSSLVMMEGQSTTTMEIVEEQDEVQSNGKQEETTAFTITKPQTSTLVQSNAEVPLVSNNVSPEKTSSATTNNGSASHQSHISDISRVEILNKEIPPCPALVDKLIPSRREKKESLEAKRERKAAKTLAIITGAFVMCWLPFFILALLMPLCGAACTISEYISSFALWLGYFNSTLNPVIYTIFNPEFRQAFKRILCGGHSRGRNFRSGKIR
Method: (§1) General binding studies were performed in Chinese hamster ovary (CHO) WTA11 cells stably coexpressing apoaequorin and the promiscuous Gα16. This allowed us to measure the pharmacology independent of the downstream signaling. CHO-PAM28 cells stably expressing apoaequorin, but not the promiscuous Gα16, and human embryonic kidney cells (HEK) 293 cells were used to measure downstream signaling via Ca^2+ and cAMP, respectively. CHO cell lines were provided by Prof. Marc Parmentier (University of Brussels, Belgium) and Dr. Michel Detheux (Euroscreen S.A., Belgium). HEK293 cells were a gift from Prof. Arnd Baumann (Research Centre Jülich, Germany.
Cells were cultured in vitro as monolayers at 37°C, 5% CO2 and high relative humidity, and subcultivated twice a week. […] HEK293 cells were cotransfected with receptor construct (4 µg) and CRE-luciferase construct (2 µg), consisting of the open reading frame of the reporter gene, luciferase, downstream of a multimerized cAMP-response-element (CRE6x), [39]. […]
The transfected CHO cells were detached with phosphate buffered saline (PBS) containing 0.2% EDTA and collected in DMEM/F-12 (without phenol red, with L-glutamine and 10 mM HEPES) (Gibco). The amount of viable cells was determined using the NucleoCounter NC-100+TM (Chemometic). […] Receptor activity was measured as the light emission after adding 50 µl of the cell suspension. […]

Trica5-HT1 [2] = target: T1, Trica5-HT1; experiment: Aequorin-luminescence assay, agonist activation of Trica5-HT1 in CHO-WTA11 cells (apoaequorin + Gα16)
Method: as §1
(§2) Cells were cultured in vitro as monolayers at 37°C, 5% CO2 and high relative humidity, and subcultivated twice a week. For transfection of CHO cells, 2.5 ml Opti-MEM®I (Invitrogen), 5 µg plasmid DNA and 12.5 µl Plus^TMreagent (Invitrogen) were mixed, stored at room temperature for 5 min and next repleted with 30 µl Lipofectamine™LTX (Invitrogen). After 30 min incubation at room temperature, this transfection mixture was added dropwise to the cells together with 5 ml medium. HEK293 cells were cotransfected with receptor construct (4 µg) and CRE-luciferase construct (2 µg), consisting of the open reading frame of the reporter gene, luciferase, downstream of a multimerized cAMP-response-element (CRE6x), [39]. All transfections were performed in T75 flasks with a confluency of about 60 percent. Cells were grown overnight, after which 15 ml of medium was added for an additional overnight incubation period.
The transfected CHO cells were detached with phosphate buffered saline (PBS) containing 0.2% EDTA and collected in DMEM/F-12 (without phenol red, with L-glutamine and 10 mM HEPES) (Gibco). The amount of viable cells was determined using the NucleoCounter NC-100+TM (Chemometic). Cells were pelleted for 4 min at 800 rpm at room temperature and resuspended in BSA-medium (DMEM/F12 without phenol red, with L-glutamine and 10 mM HEPES, supplemented with 0.1% bovine serum albumin) to a concentration of 5×10^6 cells/ml. Coelenterazine H (Invitrogen) was added to a final concentration of 5 µM, and cells were gently shaken for 4 h at room temperature in the dark. After a 10-fold dilution in BSA-medium, cells were incubated another 30 min. The pharmacological ligands were dissolved in BSA-medium. For agonists, 50 µl containing the final ligand concentration was added to appropriate wells of a 96-well plate. For antagonists, 25 µl of the antagonist solution was supplemented with 25 µl of a 5-HT solution. Receptor activity was measured as the light emission after adding 50 µl of the cell suspension. Light emission was measured for 30 s using a Mithras LB940 (Berthold Technologies). Subsequently, cells were lysed with Triton X-100 (0.1% in BSA-medium) and light emission was recorded for another 8 s. BSA-medium was used as a negative control. Light emission from each well was calculated relative to the total response (ligand+Triton X-100) using the output file of Mikrowin2000 software (Mikrotek). Further analysis was done in Graphpad Prism 5.
In order to pharmacologically characterize Trica5-HT1, we used CHO-WTA11 cells stably expressing apoaequorin and the promiscuous Gα16 subunit. […] The dose-response relationship for 5-HT and these synthetic agonists was examined at concentrations ranging from 1 pM to 1 mM (Figure 3B). […] Since the efficacy achieved by any agonist depends on the number of receptors expressed, we measured a dose-response curve for 5-HT in every experiment and normalized all agonist effects to the maximum 5-HT response, set at 100% (Figure 3B).

Trica5-HT1 [3] = target: T1, Trica5-HT1; experiment: CRE-luciferase reporter-gene assay, NKH-477 stimulated cAMP in HEK293 cells expressing Trica5-HT1; details: for IC50: NKH-477 stimulated cAMP
Method: as §1, §2
Cotransfected HEK293 cells were detached and the amount of viable cells was determined as described for CHO cells. Cells were pelleted for 4 min at 800 rpm at room temperature and resuspended in DMEM/F12 medium (without phenol red, with L-glutamine and 10 mM HEPES) containing 200 µM 3-isobutyl-1-methylxanthine (IBMX, Sigma-Aldrich) to a concentration of 10^6 cells/ml. The pharmacological ligands were dissolved in DMEM/F12 medium without phenol red containing 200 µM IBMX. The water-soluble forskolin analog NKH-477 was added to a concentration of 20 µM to measure Trica5-ht1-mediated effects on cellular cAMP signaling. In each well of a 96-well plate, 50 µl of ligand suspension and 50 µl of cell suspension were dispensed. […] Light emission was measured for 5 s per well using a Mithras LB940 (Berthold Technologies). […] Data were analyzed as described for CHO cells.
CHO-PAM28 and HEK293 cells were used to determine the downstream signaling pathway of Trica5-HT1. […] Relative high variation in the data can be explained by assay based variation since cells were not counted when dispensed. […]

Which “effect on Ca2+ signaling” value (Trica5-HT1 [1]) does the source give for `NCCc1c[nH]c2ccc(O)cc12` [5-HT, 5-HT hydrochloride] here?
The value was “No effect”.

What about the “concentration at which the maximal response was attained” value (Trica5-HT1 [2]; CHO-WTA11 cells) of the same compound?
The value was at least 10 µM.

And the “response at 100 µM agonist” value (Trica5-HT1 [2]; CHO-WTA11 cells, 100 µM, Figure 3A)?
The value was “Significant responses”.

And the EC50 (Trica5-HT1 [2]; EC50, receptor activation in CHO-WTA11 cells)?
Its EC50 is 95 nM.

What about the EC50 (Trica5-HT1 [2]; Half-maximal activation (EC50), CHO-WTA11 cells) of the same compound?
Its EC50 is 95.2 nM.

And the EC50 (Trica5-HT1 [2]; logEC50 (mean ± SEM), receptor activation in CHO-WTA11 cells, given as negative log values)?
Its EC50 is 97.7 nM.

What about the “concentration at which maximal attenuation of cAMP synthesis was attained” value (Trica5-HT1 [3]) of the same compound?
Its value is at least 10 µM.

What about the “Maximal attenuation of cAMP synthesis” value (Trica5-HT1 [3]; 5-HT ≥10 µM) of the same compound?
Its value is about 40%.

And the IC50 (Trica5-HT1 [3]; given as negative log value, read-out: logIC50 (mean ± SEM) (converted))?
Its IC50 is 83.2 nM.

What about the IC50 (Trica5-HT1 [3]; read-out: Half maximal reduction of cAMP) of the same compound?
The IC50 was 82.7 nM.
